Measurements taken from PubChem BioAssay (NCI).
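GI50 is the concentration that inhibits growth by half. TGI: total growth inhibition.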

Key:
Assay in all cases: growth of human tumour cells (NCI), 384-well format
[1] = tested on: 786-0 renal
[2] = tested on: A498 renal
[3] = tested on: A549 NSCLC
[4] = tested on: ACHN renal
[5] = tested on: BT-549 breast
[6] = tested on: CAKI-1 renal
[7] = tested on: COLO 205 colon
[8] = tested on: EKVX NSCLC
[9] = tested on: HCT-116 colon
[10] = tested on: HCT-15 colon
[11] = tested on: HL-60(TB) leukemia
[12] = tested on: HOP-62 NSCLC
[13] = tested on: HOP-92 NSCLC
[14] = tested on: HS 578T breast
[15] = tested on: HT29 colon
[16] = tested on: IGROV1 ovarian
[17] = tested on: K-562 leukemia
[18] = tested on: KM12 colon
[19] = tested on: M14 melanoma
[20] = tested on: MALME-3M melanoma
[21] = tested on: MCF7 breast
[22] = tested on: MDA-MB-231 breast
[23] = tested on: MDA-MB-435 melanoma
[24] = tested on: MDA-MB-468 breast
[25] = tested on: MOLT-4 leukemia
[26] = tested on: NCI-H226 lung
[27] = tested on: NCI-H322M lung
[28] = tested on: NCI-H460 NSCLC
[29] = tested on: NCI-H522 lung
[30] = tested on: OVCAR-3 ovarian
[31] = tested on: OVCAR-4 ovarian
[32] = tested on: OVCAR-5 ovarian
[33] = tested on: OVCAR-8 ovarian
[34] = tested on: PC-3 prostate
[35] = tested on: RXF 393 renal
[36] = tested on: SF-268 CNS
[37] = tested on: SF-295 CNS
[38] = tested on: SF-539 CNS
[39] = tested on: SK-MEL-2 melanoma
[40] = tested on: SK-MEL-28 melanoma
[41] = tested on: SK-MEL-5 melanoma
[42] = tested on: SK-OV-3 ovarian
[43] = tested on: SN12C renal
[44] = tested on: SNB-19 CNS
[45] = tested on: SNB-75 CNS
[46] = tested on: SR leukemia
[47] = tested on: SW-620 colon
[48] = tested on: T-47D breast
[49] = tested on: TK-10 renal
[50] = tested on: U251 glioblastoma
[51] = tested on: UACC-257 melanoma
[52] = tested on: UACC-62 melanoma
[53] = tested on: UO-31 renal

C=CCNC1=C2C[C@@H](C)C[C@H](OC)[C@H](O)[C@@H](C)/C=C(\C)[C@H](OC(N)=O)[C@@H](OC)/C=C\C=C(/C)C(=O)NC(=CC1=O)C2=O
GI50 [1]: 65.7 nM
TGI [1]: 271 nM
GI50 [2]: 34.5 nM
TGI [2]: 12400 nM
GI50 [3]: < 10 nM
TGI [3]: 10500 nM
GI50 [4]: 83.2 nM
TGI [4]: 12000 nM
GI50 [5]: < 10 nM
TGI [5]: 31.2 nM
GI50 [6]: 140 nM
TGI [6]: 14700 nM
GI50 [7]: < 10 nM
TGI [7]: 11 nM
GI50 [8]: 44.8 nM
TGI [8]: 419 nM
GI50 [9]: 36.5 nM
TGI [9]: 8320 nM
GI50 [10]: 51.9 nM
TGI [10]: 5340 nM
GI50 [11]: 31 nM
TGI [11]: 169 nM
GI50 [12]: 20.4 nM
TGI [12]: 1750 nM
GI50 [13]: 716 nM
TGI [13]: 3140 nM
GI50 [14]: < 10 nM
TGI [14]: 20.2 nM
GI50 [15]: < 10 nM
TGI [15]: 10700 nM
GI50 [16]: 27.1 nM
TGI [16]: 281 nM
GI50 [17]: 27.6 nM
TGI [17]: 10300 nM
GI50 [18]: < 10 nM
TGI [18]: 11.5 nM
GI50 [19]: < 10 nM
TGI [19]: 11400 nM
GI50 [20]: < 10 nM
TGI [20]: 282 nM
GI50 [21]: < 10 nM
TGI [21]: 41.6 nM
GI50 [22]: 422 nM
TGI [22]: 2240 nM
GI50 [23]: 34 nM
TGI [23]: 13700 nM
GI50 [24]: 180 nM
TGI [24]: 733 nM
GI50 [25]: 145 nM
TGI [25]: 336 nM
GI50 [26]: 33.3 nM
TGI [26]: 440 nM
GI50 [27]: < 10 nM
TGI [27]: 10100 nM
GI50 [28]: < 10 nM
TGI [28]: 1610 nM
GI50 [29]: 13.6 nM
TGI [29]: 47.4 nM
GI50 [30]: 37.1 nM
TGI [30]: 447 nM
GI50 [31]: 158 nM
TGI [31]: 12000 nM
GI50 [32]: 59.2 nM
TGI [32]: 12600 nM
GI50 [33]: 42.2 nM
TGI [33]: 205 nM
GI50 [34]: 22.9 nM
TGI [34]: 124 nM
GI50 [35]: 16.5 nM
TGI [35]: 65.6 nM
GI50 [36]: 27.4 nM
TGI [36]: 11100 nM
GI50 [37]: 21.9 nM
TGI [37]: 121 nM
GI50 [38]: 13.9 nM
TGI [38]: 36.1 nM
GI50 [39]: < 10 nM
TGI [39]: 112 nM
GI50 [40]: 29.5 nM
TGI [40]: 15200 nM
GI50 [41]: < 10 nM
TGI [41]: 2900 nM
GI50 [42]: 14.8 nM
TGI [42]: 99.5 nM
GI50 [43]: 17.2 nM
TGI [43]: 255 nM
GI50 [44]: 50.8 nM
TGI [44]: 10800 nM
GI50 [45]: 13.8 nM
TGI [45]: 73.8 nM
GI50 [46]: 11 nM
TGI [46]: 25.3 nM
GI50 [47]: 16 nM
TGI [47]: 10900 nM
GI50 [48]: 838 nM
TGI [48]: 6160 nM
GI50 [49]: 35.7 nM
TGI [49]: 13500 nM
GI50 [50]: 26.2 nM
TGI [50]: 167 nM
GI50 [51]: 27.4 nM
TGI [51]: 1350 nM
GI50 [52]: 11.8 nM
TGI [52]: 53.5 nM
GI50 [53]: 340 nM
TGI [53]: 12000 nM
